One experiment concerns the target T1, human IGF1R (Homo sapiens, UniProt P08069).
T1 construct: expressed in transfected cells; host or cells: R+ cells (R- mouse fibroblasts transfected with human IGF1R)
The experiment can be described thus: Inhibition of Insulin-Like Growth Factor-1 Receptor Phosphorylation in R+ cells. Type of experiment: cell-based. As to conditions: median; R+ cells stimulated with 30 nM IGF1. As for the experimental part: This immunofluorescence end point cell assay measures the ability of a test compound to reduce the measured levels of IGF1R phosphorylation after IGF1 stimulation in R cells. R^+ cells are derived by transfection of R^− mouse fibroblast cells with human IGF1R. R^+ cells are routinely cultured in DMEM growth medium (Gibco BRL, 41966) containing 2 mM L-Glutamine (Invitrogen Code no. 25030-024) and 10% (v/v) foetal bovine serum (FBS)) in a 5% CO2 air incubator at 37° C.
To undertake the assay, the R^+ cells are seeded at 5×10^3 cells/well in DMEM plus 1% foetal calf serum, 1% L-glutamine in 96-well black Packard View plates (PerkinElmer 6005182) and incubated at 37° C. (+5% CO2) in a humidified incubator. […]
Following the compound treatment, the R^+ cells are stimulated with a final concentration of 30 nM IGF1 (Gropep IM001) for 20 minutes at 37° C. […] Additionally, in-house antibodies raised against phospho IGF1R were also used at a suitable titre determined for each batch. […]
The Green Fluorescent phospho IGF1R-associated signal in each well was measured using an Acumen Explorer HTS Reader (TTP Labtech Ltd., Cambridge). Phospho IGF1R-associated fluorescence emission can be detected at 530 nm following excitation at 488 nm. […] These fluorescent objects can be quantified and provide a measure of the phospho IGF1R levels in cells. […]

The target in experiment [1] is T2, human cytochrome P450 (CYP) 1A2 (Homo sapiens, UniProt P05177).
T2 construct: made in house; host or cells: yeast cell lines (microsomal fractions)
T2 sequence (P05177 1-516): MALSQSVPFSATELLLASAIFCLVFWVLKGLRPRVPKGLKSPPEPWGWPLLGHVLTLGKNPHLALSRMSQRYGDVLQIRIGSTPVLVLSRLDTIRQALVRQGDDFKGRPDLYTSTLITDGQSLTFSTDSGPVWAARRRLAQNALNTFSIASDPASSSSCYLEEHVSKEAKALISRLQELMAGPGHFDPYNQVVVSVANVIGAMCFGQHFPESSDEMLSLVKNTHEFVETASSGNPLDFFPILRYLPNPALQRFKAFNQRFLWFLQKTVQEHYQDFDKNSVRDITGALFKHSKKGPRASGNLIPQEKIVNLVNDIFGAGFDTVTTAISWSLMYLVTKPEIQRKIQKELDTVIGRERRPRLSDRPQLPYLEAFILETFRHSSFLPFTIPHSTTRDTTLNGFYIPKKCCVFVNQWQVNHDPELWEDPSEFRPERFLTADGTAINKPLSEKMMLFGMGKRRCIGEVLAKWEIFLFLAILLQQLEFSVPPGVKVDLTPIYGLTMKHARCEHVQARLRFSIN
The experiment can be described thus: Cytochrome P450 Inhibition Assay 1A2. Type of experiment: in vitro ADME. The settings on record: test compound final concentrations 0.1-10 μM; substrate CEC. On the procedure: The inhibitory potential (IC50) of test compounds against 5 human cytochrome P450 (CYP) isoforms (1A2, 2C9, 2C19, 3A4 and 2D6) was assessed using an automated fluorescent end point in vitro assay modified from Crespi (Crespi and Stresser, 2000). Microsomal subcellular fractions prepared from Yeast cell lines expressing each human CYP isoform were used as an enzyme source in this assay. The activity of the 5 major human CYPs was determined from the biotransformation of a number of coumarin substrates to fluorescent metabolites, in the presence of NADPH. […] Comparison of the fluorescence observed in the presence of varying concentrations of test compound with that seen in its absence allowed an IC50 value to be calculated. Stock solutions of each CYP, with its respective substrate, were prepared in phosphate buffer pH7.4 (see Table 1) and 178 μl was added to the well of a black solid, flat bottom, 300 μl 96 well is microtitre plate (Corning Costar). […] The appropriate solvent controls and substrate blanks were included in each experiment to assess control activity and identify any inherent fluorescence due to the test compounds. […] The plates were read on a fluorimeter (Spectrafluor Plus) at the appropriate excitation and emission wavelengths (listed in Table 2) and the percent activity, corrected for control, was plotted against the test compound concentration.

Some results are limits rather than exact numbers.

T1 sequence (P08069 31-1367): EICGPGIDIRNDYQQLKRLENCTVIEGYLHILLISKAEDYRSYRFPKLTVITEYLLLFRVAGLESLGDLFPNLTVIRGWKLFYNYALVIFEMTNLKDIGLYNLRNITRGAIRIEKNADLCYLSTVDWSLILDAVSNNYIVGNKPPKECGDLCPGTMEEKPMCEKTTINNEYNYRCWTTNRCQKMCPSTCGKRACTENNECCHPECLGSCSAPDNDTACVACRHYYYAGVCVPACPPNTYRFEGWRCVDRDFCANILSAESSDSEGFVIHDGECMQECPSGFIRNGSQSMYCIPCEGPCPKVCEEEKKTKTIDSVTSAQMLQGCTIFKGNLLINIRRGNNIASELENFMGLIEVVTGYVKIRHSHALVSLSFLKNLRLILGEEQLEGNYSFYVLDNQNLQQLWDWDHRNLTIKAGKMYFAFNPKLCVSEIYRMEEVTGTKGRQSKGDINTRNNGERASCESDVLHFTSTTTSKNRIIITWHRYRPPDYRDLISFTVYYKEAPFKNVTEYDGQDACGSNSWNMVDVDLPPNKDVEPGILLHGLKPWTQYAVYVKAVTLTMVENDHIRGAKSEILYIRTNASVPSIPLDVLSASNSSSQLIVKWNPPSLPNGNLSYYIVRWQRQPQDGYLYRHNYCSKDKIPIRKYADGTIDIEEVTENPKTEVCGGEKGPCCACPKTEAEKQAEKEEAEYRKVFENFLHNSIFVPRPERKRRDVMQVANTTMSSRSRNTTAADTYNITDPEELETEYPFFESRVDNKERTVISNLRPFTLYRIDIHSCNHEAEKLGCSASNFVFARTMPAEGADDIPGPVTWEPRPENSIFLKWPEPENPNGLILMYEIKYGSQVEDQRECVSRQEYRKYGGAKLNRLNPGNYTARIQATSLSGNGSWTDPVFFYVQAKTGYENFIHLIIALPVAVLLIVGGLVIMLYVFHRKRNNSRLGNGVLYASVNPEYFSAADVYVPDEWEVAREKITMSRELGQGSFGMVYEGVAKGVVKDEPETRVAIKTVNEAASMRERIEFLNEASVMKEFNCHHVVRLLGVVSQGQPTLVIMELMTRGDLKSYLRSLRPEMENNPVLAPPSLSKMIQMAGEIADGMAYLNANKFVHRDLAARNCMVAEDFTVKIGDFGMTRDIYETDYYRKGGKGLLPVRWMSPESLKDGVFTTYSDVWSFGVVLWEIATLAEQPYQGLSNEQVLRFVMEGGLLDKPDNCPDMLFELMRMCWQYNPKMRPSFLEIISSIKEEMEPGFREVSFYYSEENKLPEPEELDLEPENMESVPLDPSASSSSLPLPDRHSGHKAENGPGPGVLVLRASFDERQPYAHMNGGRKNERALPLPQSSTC

For the molecule `CCc1cc(Nc2cc(OC)nc(N3CCC[C@H]3c3cc(-c4ncccn4)no3)n2)n[nH]1` [Comparative Example A, (S)-6-Methoxy-2-{2-[3-(pyrimid-2-yl)isoxazol-5-yl]pyrrolidin-1-yl}-4-(5-ethyl-1H-pyrazol-3-ylamino)pyrimidine], the IC50 (commonly the concentration at which inhibition is half-maximal) stood at 2.68 nM at human IGF1R and 1870 nM in experiment [1].

Consider `COc1cc(Nc2cc(C)n[nH]2)nc(N2CCC[C@H]2c2cc(-c3ncccn3)no2)n1` [Example 1, (S)-6-Methoxy-2-{2-[3-(pyrimid-2-yl)isoxazol-5-yl]pyrrolidin-1-yl}-4-(5-methyl-1H-pyrazol-3-ylamino)pyrimidine], for which the half-inhibitory concentration (IC50) against human IGF1R is 4.29 nM; in experiment [1], more than 10000 nM.
